What was measured:
[1] = Spectroscopic analysis: absorbance, emission and quantum yield of Nile Red derivatives; format: physicochemical; conditions: in DMSO; for QY (quantum yield): standard Rhodamine B
Method: Tandem liquid chromatography mass spectroscopy (LCMS) analysis (Agilent 1260 LC system with a 6224 time of flight (TOF) MS, Agilent, Santa Clara, Calif.) was performed using a 2.7 micron C18 column (4.6×50 mm, Agilent). High performance liquid chromatography (HPLC) purification (Agilent 1260 system with a preparative pump) was performed using a 5 micron C18 column (21.2×150 mm, Agilent). For both HPLC and LCMS, the mobile phase consisted of HPLC grade acetonitrile and water, treated with 0.1% formic acid. Spectroscopic analysis was performed on a Spectramax M5 spectrometer (Molecular Devices, Sunnyvale, Calif.) using a quartz cuvette with a 1 cm pathlength. Quantum yield was calculated according to equation (1).
Where Ø is the quantum yield, F is the integrated fluorescence intensity, f is the absorbance at the excitation wavelength and n is the refractive index of the solvent. S refers to the quantum yield standard (Rhodamine B)^25 and X refers to the unknown sample.

[2] = tested on: U2OS human osteosarcoma cell line; test: Nile Red derivative cell staining and imaging, fixed and live cells; format: cell-based; conditions: 1 μM; for fluorescence intensity in fixed cells: U2OS fixed with 4% PFA, imaged without washing; for fluorescence intensity in live cells without washing / structures observed in live cells without washing: U2OS live, imaged in staining solution
Method: The U2OS human osteosarcoma cell line was cultured in Dulbecco's Modified Eagle Medium (DMEM, Thermo Fisher Scientific, Waltham, Mass.) with 10% fetal bovine serum (FBS, VWR, Radnor, Pa.) and 1% Penicillin/Steptomycin 100× (Thermo Fisher Scientific) at 37° C. in 5% CO2. For live cell imaging studies, Fluorobrite DMEM media (Thermo Fisher Scientific) was used in place of DMEM. For imaging studies, cells were grown in 96-well glass bottom plates (Cellvis, Mountain View, Calif.) for 48 hours, with a final confluence of <80%. Nile Red and its derivatives were prepared at 1-10 mM stock concentration in DMSO and diluted into media or buffer for cell staining and imaging studies.
Cell staining studies were completed on fixed and live U2OS cells using Nile Red and each synthesized Nile Red derivative described as follows. For fixed cell staining, cells were washed once with 1× phosphate buffered saline (PBS), then fixed with 4% paraformaldehyde (PFA) for 20 minutes at room temperature. The PFA was removed and each well was washed three times for 5 mins per wash (3×5 mins) with 1×PBS. The Nile Red fluorophores were diluted into 1×PBS to a final concentration of 1 μM, incubated for 5 minutes with the cells, and images were collected without washing. Live cell staining was completed using two methods. First, cells were washed once with Fluorobrite DMEM. The Nile Red fluorophore solution was prepared in Fluorobrite DMEM by diluting to a final concentration of 1 μM for staining, where cells were stained for 5 minutes. The fluorophore containing media was removed and the cells were fixed for 20 minutes using 4% PFA. Cells were then washed 3×5 mins with Fluorobrite DMEM prior to imaging. Second, cells were washed with Fluorobrite DMEM without FBS once for 5 minutes. Nile Red fluorophore solutions were prepared in Fluorobrite without FBS at 1 μM final concentration for cell staining. The cells were stained with the prepared solution for 5 minutes and imaged in the staining solution. All images were collected at their ideal exposure times to permit visualization of stained intracellular structures.
All ex vivo and cellular fluorescence and white light images were collected using a Zeiss AxioObserver inverted fluorescence microscope (Carl Zeiss, Oberkochen, Germany). All cell images were collected at 40× magnification and all tissue section images were collected at 10× magnification. Fluorescence excitation was completed using a Photofluor II broad band light source (89 North, Burlington, Vt.) filtered with a 545±12.5 nm bandpass excitation filter. Fluorescence images were collected using a 605±35 nm bandpass emission filter and a AxioCam 506 monochromo camera (Zeiss). All Filters were Purchased from Chroma Technologies (Bellows Falls, Vt.).

[3] = tested on: sciatic nerve or brachial plexus nerve sites (adipose, nerve, muscle tissue); test: In vivo imaging following direct/topical administration on rodent nerve sites; parameters: species or system male CD-1 mice; conditions: immediately following direct administration
Text: In vivo images were acquired using a previously published, custom-built small animal fluorescence imaging system, described briefly here.^27 Fluorescent images were obtained using a Qimaging EXi Blue monochrome camera (Surrey, British Columbia, CA) with a removable Bayer mask for collection of co-registered color and fluorescence images. A Photofluor II broad band light source (89 North) was expanded onto the surgical field through a liquid light guide and used unfiltered for white light illumination. Nile Red and NR5 were excitated using a 545 t 12.5 nm bandpass filter, while fluorescence emission images were collected with a 605±35 nm bandpass filter. Oxazine 4 (Exciton, West Chester, Ohio) was used for nerve and adipose co-staining and ratiometic imaging studies. Oxazine 4 was excited using a 620±30 nm bandpass filter, while fluorescence emission images were collected through a 700±37.5 nm bandpass filter. Approval for the use of animals in the study was obtained from the Institutional Animal Care and Use Committee (IACUC) at Oregon Health and Science University (OHSU). In vivo staining studies were carried out on male CD-1 mice using an optimized direct/topical administration protocol.^2 Staining was performed concurrently on no more than two nerve sites (sciatic nerve or brachial plexus) per mouse. Nile Red and all Nile Red derivatives were formulated in a previously published co-solvent formulation (10% DMSO, 5% Kolliphor, 63.75% serum and 21.25% PBS^14) at a final concentration of 100 μM. Each formulated fluorophore was incubated for 5 minutes on the nerve site (n=4 nerve sites/fluorophore), followed by 9 short flushes with PBS. The nerve site was then incubated with blank co-solvent not containing fluorophore for 5 minutes, followed again by 9 short flushes with PBS.

[4] = tested on: nerve, adipose and muscle tissue at nerve sites; test: In vivo co-staining with Oxazine 4, ratiometric imaging and ROC curve analysis; parameters: species or system male CD-1 mice; conditions: 30 min after staining compared to immediately following staining
Text: In vivo images were acquired using a previously published, custom-built small animal fluorescence imaging system, described briefly here.^27 Fluorescent images were obtained using a Qimaging EXi Blue monochrome camera (Surrey, British Columbia, CA) with a removable Bayer mask for collection of co-registered color and fluorescence images. A Photofluor II broad band light source (89 North) was expanded onto the surgical field through a liquid light guide and used unfiltered for white light illumination. Nile Red and NR5 were excitated using a 545 t 12.5 nm bandpass filter, while fluorescence emission images were collected with a 605±35 nm bandpass filter. Oxazine 4 (Exciton, West Chester, Ohio) was used for nerve and adipose co-staining and ratiometic imaging studies. Oxazine 4 was excited using a 620±30 nm bandpass filter, while fluorescence emission images were collected through a 700±37.5 nm bandpass filter. Approval for the use of animals in the study was obtained from the Institutional Animal Care and Use Committee (IACUC) at Oregon Health and Science University (OHSU). In vivo staining studies were carried out on male CD-1 mice using an optimized direct/topical administration protocol.^2 Staining was performed concurrently on no more than two nerve sites (sciatic nerve or brachial plexus) per mouse. Nile Red and all Nile Red derivatives were formulated in a previously published co-solvent formulation (10% DMSO, 5% Kolliphor, 63.75% serum and 21.25% PBS^14) at a final concentration of 100 μM. Each formulated fluorophore was incubated for 5 minutes on the nerve site (n=4 nerve sites/fluorophore), followed by 9 short flushes with PBS. The nerve site was then incubated with blank co-solvent not containing fluorophore for 5 minutes, followed again by 9 short flushes with PBS. In vivo co-staining was completed with (1) Nile Red and Oxazine 4 as well as (2) NR5 and Oxazine 4. For these studies, co-solvent formulated Oxazine 4 ([…]) was incubated on the nerve site for 5 minutes followed by 9 short flushes with PBS. The co-solvent formulated Nile Red or NR5 (100 μM) was then incubated on the nerve site for 5 minutes and also followed by 9 short flushes with PBS. Co-registered (1) Nile Red and Oxazine 4 or (2) NR5 and Oxazine 4 images were collected from n=4 nerve sites per groups (1) and (2). Ratiometric images were calculated and quantified using region of interest analysis on the white light images to identify the nerve, adipose and muscle tissue types. Due to the known cross talk of Oxazine 4 into the Nile Red channel,^2 the Oxazine 4 image was subtracted from the Nile Red or NR5 image resulting in an image of only adipose. The ratiometric images were then calculated as the Oxazine 4 image minus the corrected Nile Red or NR5 image divided by the corrected Nile Red or NR5 image. Receiver Operator Characteristic (ROC) curve analysis was performed to assess differences between the ratiometric images, where the area under the curve (AUC) was used as the metric to differentiate between groups (1) and (2) using custom written MatLab code.^28

[5] = U2OS, fixed and washed prior to imaging

Row | SMILES | Max Abs [1] [nm] | Max Em [1] [nm] | Stokes Shift [1] [nm] | QY (quantum yield) [1] | fluorescence intensity in fixed cells ([2]; 5 min) | fluorescence intensity in live cells without washing ([2]; 5 min) | structures observed in live cells without washing ([2]; 5 min) | adipose to muscle ratio [3] | adipose to nerve ratio [3] | ROC AUC of nerve-to-muscle contrast, change [4] | staining pattern in cells stained live, then fixed [2, 5] | exposure time in cells stained live, then fixed ([2]; U2OS, 5 min, fixed and washed prior to imaging)
1 | CCN(CC)c1ccc2nc3c4ccc(-c5ccc(N)cc5)cc4c(=O)cc-3oc2c1 [NR1] | 555 | 635 | 80 | 0.08 | brighter in vitro fluorescence than NR12 | brighter than other Nile Red derivatives with higher quantum yields such as NR12 and NR6 | Prominent lipid droplet like structures | lower than Nile Red, adipose to muscle contrast was similar | increased contrast over control autofluorescence with similar adipose to nerve contrast | – | – | –
2 | CC/N=c1/cc2oc3cc(NCC)c(C)cc3nc-2cc1C [Oxazine 4, reference compound] | – | – | – | – | – | – | – | – | – | improved values | – | –
3 | CCN(CC)c1ccc2nc3c4cc(C#Cc5cccc(N)c5)ccc4c(=O)cc-3oc2c1 [NR7, 2-((3-aminophenyl)ethynyl)-9-(diethylamino)-5H-benzo[a]phenoxazin-5-one] | 565 | 640 | 75 | 0.14 | – | – | – | – | – | – | more cytoplasmic structures were stained | –
4 | CCN(CC)c1ccc2nc3c4cc(C#Cc5ccc(C=O)c(S(C)(=O)=O)c5)ccc4c(=O)cc-3oc2c1 [NR6, 4-((9-(diethylamino)-5-oxo-5H-benzo[a]phenoxazin-2-yl)ethynyl)-2-(methylsulfonyl)benzaldehyde] | 570 | 640 | 70 | 0.45 | – | – | – | – | increased contrast over control autofluorescence with similar adipose to nerve contrast | – | more cytoplasmic structures were stained | less than 10 sec

Now from value to compound, other results behind:

Row | Max Abs [1] [nm] | Max Em [1] [nm] | Stokes Shift [1] [nm] | QY (quantum yield) [1] | SMILES | fluorescence intensity in fixed cells ([2]; 5 min) | fluorescence intensity in live cells without washing ([2]; 5 min) | structures observed in live cells without washing ([2]; 5 min) | adipose to muscle ratio [3] | adipose to nerve ratio [3] | ROC AUC of nerve-to-muscle contrast, change [4] | staining pattern in cells stained live, then fixed [2, 5] | exposure time in cells stained live, then fixed ([2]; U2OS, 5 min, fixed and washed prior to imaging)
5 | 565 | 640 | 75 | 0.48 | CCN(CC)c1ccc2nc3c4cc(C#Cc5cccc(C=O)c5)ccc4c(=O)cc-3oc2c1 [NR8, 3-((9-(diethylamino)-5-oxo-5H-benzo[a]phenoxazin-2-yl)ethynyl)benzaldehyde] | bright | brightest of the synthesized derivatives | – | – | – | – | – | –
6 | 565 | 640 | 75 | 0.48 | CCN(CC)c1ccc2nc3c4cc(C#Cc5cc(C=O)ccc5OC)ccc4c(=O)cc-3oc2c1 [NR9, 3-((9-(diethylamino)-5-oxo-5H-benzo[a]phenoxazin-2-yl)ethynyl)-4-methoxybenzaldehyde] | – | – | Prominent lipid droplet like structures | – | – | – | – | –
7 | 555 | 635 | 80 | 0.04 | CCN(CC)c1ccc2nc3c4cc(-c5ccc(N)cc5)ccc4c(=O)cc-3oc2c1 [NR10, 2-(4-aminophenyl)-9-(diethylamino)-5H-benzo[a]phenoxazin-5-one] | – | – | – | lower than Nile Red, adipose to muscle contrast was similar | increased contrast over control autofluorescence with similar adipose to nerve contrast | – | more cytoplasmic structures were stained | –

Reference: patent US20210115000A1, “NILE RED DERIVATIVES FOR IMPROVED RATIOMETRIC IMAGING FOR NERVE SPECIFIC CONTRAST” (Oregon Health & Sciences University, priority 2018, published 2021)
